Here are results for 6 molecules from patent publication US20250041433A1, “PROTEIN-ANTIVIRAL COMPOUND CONJUGATES” (REGENERON PHARMACEUTICALS, INC., priority 2021, published 2025).

In this experiment the test system is H1N1 A/Puerto Rico/08/1934-GFP influenza virus. Kind of experiment: organism not typed. In kind it is cell-based, H1N1 A/Puerto Rico/08/1934 influenza virus. Particulars: for IC50: MDCK, 20 h, read-out: Antiviral activity of VX-787 free payloads IC50; for antiviral activity of VX-787 derivatives (in words): free payloads.

Consider `O=C(O)[C@H]1C2CCC(CC2)[C@@H]1Nc1nc(-c2c(CO)[nH]c3ncc(F)cc23)ncc1F` [Compound 15], for which the IC50 worked out at 240 nM and the “antiviral activity of VX-787 derivatives (in words)” value (“antiviral activity” below) is given as “displayed antiviral activity”. For `O=C(NO)[C@H]1C2CCC(CC2)[C@@H]1Nc1nc(-c2c[nH]c3ncc(F)cc23)ncc1F` [Compound 20a], in that order: 3.77 nM and “displayed antiviral activity”.

As for `O=C(NO)[C@H]1C2CCC(CC2)[C@@H]1Nc1nc(-c2c[nH]c3ncc(F)cc23)nc2sccc12` [Compound 20b], the IC50 was determined as 9.64 nM and the “antiviral activity” value is on record as “displayed antiviral activity”. Consider `Cn1ccc2c(N[C@H]3C4CCC(CC4)[C@@H]3C(=O)NO)nc(-c3c[nH]c4ncc(F)cc34)nc21` [Compound 20c], for which the IC50 came to 13.8 nM and the “antiviral activity” value was “displayed antiviral activity”. With `O=C(NO)[C@H]1C2CCC(CC2)[C@@H]1Nc1nc(-c2n[nH]c3ncc(F)cc23)ncc1F` [Compound 57], the IC50 amounted to 2 nM. Still for that read-out and setting: the same measure for `O=C(NO)[C@H]1C2CCC(CC2)[C@@H]1Nc1nc(-c2n[nH]c3ncc(F)cc23)nc2sccc12` [Compound 62]: 2.19 nM.

By IC50 is commonly meant the concentration at which inhibition is half-maximal.
